Measurements reported in US20240124460A1, “METHODS AND COMPOSITIONS FOR TARGETED PROTEIN DEGRADATION” (Ranok Therapeutics (Hangzhou) Co. Ltd., priority 2020, published 2024).

Tests used:
[1] = tested on: U-87 MG human glioblastoma; assay: U87 MG CCK-8 proliferation assay; type: cell-based; conditions: Homo sapiens, U-87 MG, 72 h, U-87 MG cells, read-out: U87MG CCK-8
Procedure: (§1) The following cancer cell lines were employed: A549 human lung carcinoma (ATCC, #CCL-185); BT-474 human breast carcinoma (ATCC, #HTB-20); MDA-MB-231 human breast adenocarcinoma (ATCC, #CRM−HTB-26); MDA-MB-468 human breast adenocarcinoma (ATCC, #HTB-132); MV-4-11 human acute myeloid leukemia (ATCC, #CRL-9591); and U-87 MG human glioblastoma (ATCC, #HTB-14). Cell lines were cultured essentially according to ATCC recommendations.
(§2) 3-fold serial dilutions of each test compound were prepared ranging from 20 μM to 1.02 nM.
(§3) % Inhibition=100−(D−B)/(S−B)*100%. • S: Absorbance of cells treated with DMSO • D: Absorbance of compound-treated cells • B: Absorbance of medium with DMSO without cells

[2] = tested on: MV-4-11 human acute myeloid leukemia; assay: MV-4-11 CCK-8 proliferation assay; type: cell-based; conditions: Homo sapiens, MV4-11; MV-4-11 cells, 72 hr
Procedure: as §1, §2, §3

Row | EC50 [1] [µM] | EC50 [2] [µM] | Compound
1 | > 1 | > 1 | CCOc1cc(N2CCC(C(=O)N3CCC(Oc4ccc(-c5ccc(NC(=O)c6ccc(OC)c(-c7cccc(OC)c7)c6)cc5)cc4)CC3)CC2)ccc1Nc1ncc2c(n1)N(S(C)(=O)=O)c1ccccc1C(=O)N2C [Compound 144, N-(4′-((1-(1-(3-ethoxy-4-((5-methyl-11-(methylsulfonyl)-6-oxo-6,11-dihydro-5H-benzo[e]pyrimido[5,4-b][1,4]diazepin-2-yl)amino)phenyl)piperidine-4-carbonyl)piperidin-4-yl)oxy)-[1,1′-biphenyl]-4-yl)-3′,6-dimethoxy-[1,1′-biphenyl]-3-carboxamide]
2 | > 1 | > 1 | CCOc1cc(N2CCC(C(=O)N3CCC(COc4ccc(-c5ccc(NC(=O)c6ccc(OC)c(-c7cccc(OC)c7)c6)cc5)cc4)CC3)CC2)ccc1Nc1ncc2c(n1)N(C)c1ccccc1C(=O)N2C [Compound 145, N-(4′-((1-(1-(4-((5,11-dimethyl-6-oxo-6,11-dihydro-5H-benzo[e]pyrimido[5,4-b][1,4]diazepin-2-yl)amino)-3-ethoxyphenyl)piperidine-4-carbonyl)piperidin-4-yl)methoxy)-[1,1′-biphenyl]-4-yl)-3′,6-dimethoxy-[1,1′-biphenyl]-3-carboxamide]
3 | > 1 | > 1 | CCOc1cc(N2CCC(C(=O)N3CCC(COc4ccc(-c5ccc(NC(=O)c6ccc(OC)c(-c7cccc(OC)c7)c6)cc5)cc4)CC3)CC2)ccc1Nc1ncc2c(n1)N(S(C)(=O)=O)c1ccccc1C(=O)N2C [Compound 146, N-(4′-((1-(1-(3-ethoxy-4-((5-methyl-11-(methylsulfonyl)-6-oxo-6,11-dihydro-5H-benzo[e]pyrimido[5,4-b][1,4]diazepin-2-yl)amino)phenyl)piperidine-4-carbonyl)piperidin-4-yl)methoxy)-[1,1′-biphenyl]-4-yl)-3′,6-dimethoxy-[1,1′-biphenyl]-3-carboxamide]
4 | > 1 | > 1 | CCOc1cc(N2CCC(C(=O)NCCCOc3ccc(-c4ccc(NC(=O)c5ccc(OC)c(-c6cccc(OC)c6)c5)cc4)cc3)CC2)ccc1Nc1ncc2c(n1)N(C)c1ccccc1C(=O)N2C [Compound 147, N-(3-((4′-(3′,6-dimethoxy-[1,1′-biphenyl]-3-carboxamido)-[1,1′-biphenyl]-4-yl)oxy)propyl)-1-(4-((5,11-dimethyl-6-oxo-6,11-dihydro-5H-benzo[e]pyrimido[5,4-b][1,4]diazepin-2-yl)amino)-3-ethoxyphenyl)piperidine-4-carboxamide]
5 | > 1 | > 1 | CCOc1cc(N2CCC(C(=O)NCCCOc3ccc(-c4ccc(NC(=O)c5ccc(OC)c(-c6cccc(OC)c6)c5)cc4)cc3)CC2)ccc1Nc1ncc2c(n1)N(S(C)(=O)=O)c1ccccc1C(=O)N2C [Compound 148, N-(3-((4′-(3′,6-dimethoxy-[1,1′-biphenyl]-3-carboxamido)-[1,1′-biphenyl]-4-yl)oxy)propyl)-1-(3-ethoxy-4-((5-methyl-11-(methylsulfonyl)-6-oxo-6,11-dihydro-5H-benzo[e]pyrimido[5,4-b][1,4]diazepin-2-yl)amino)phenyl)piperidine-4-carboxamide]
6 | > 1 | > 1 | CCOc1cc(N2CCC(C(=O)NCCCOc3ccc(-c4ccc(NC(=O)c5ccc(OC)c(-c6cccc(OC)c6)c5)cc4)c(OCCCN(C)C)c3)CC2)ccc1Nc1ncc2c(n1)N(C)c1ccccc1C(=O)N2C [Compound 152, N-(3-((4′-(3′,6-dimethoxy-[1,1′-biphenyl]-3-carboxamido)-2-(3-(dimethylamino)propoxy)-[1,1′-biphenyl]-4-yl)oxy)propyl)-1-(4-((5,11-dimethyl-6-oxo-6,11-dihydro-5H-benzo[e]pyrimido[5,4-b][1,4]diazepin-2-yl)amino)-3-ethoxyphenyl)piperidine-4-carboxamide]
7 | 0.1 to 1 | < 0.1 | CCOc1cc(N2CCC(C(=O)NCc3ccc(CN(CC)Cc4ccc(-n5c(O)nnc5-c5cc(C(C)C)c(O)cc5O)cc4)cc3)CC2)ccc1Nc1ncc2c(n1)N(C)c1ccccc1C(=O)N2C [Compound 165, N-(4-(((4-(3-(2,4-dihydroxy-5-isopropylphenyl)-5-hydroxy-4H-1,2,4-triazol-4-yl)benzyl)(ethyl)amino)methyl)benzyl)-1-(4-((5,11-dimethyl-6-oxo-6,11-dihydro-5H-benzo[e]pyrimido[5,4-b][1,4]diazepin-2-yl)amino)-3-ethoxyphenyl)piperidine-4-carboxamide]

The next lines start with the compound.

Row | Compound | EC50 [1] [µM] | EC50 [2] [µM]
8 | CCOc1cc(N2CCC(C(=O)N3CCN(Cc4ccc(-n5c(O)nnc5-c5cc(C(C)C)c(O)cc5O)cc4)CC3)CC2)ccc1Nc1ncc2c(n1)N(S(C)(=O)=O)c1ccccc1C(=O)N2C [Compound 159, 2-((4-(4-(4-(4-(3-(2,4-dihydroxy-5-isopropylphenyl)-5-hydroxy-4H-1,2,4-triazol-4-yl)benzyl)piperazine-1-carbonyl)piperidin-1-yl)-2-ethoxyphenyl)amino)-5-methyl-11-(methylsulfonyl)-5,11-dihydro-6H-benzo[e]pyrimido[5,4-b][1,4]diazepin-6-one] | < 0.1 | < 0.1
9 | CCOc1cc(N2CCC(C(=O)N3CCN(Cc4ccc(-n5c(O)nnc5-c5cc(C(C)C)c(O)cc5O)cc4)CC3)CC2)ccc1N(CC)c1ncc2c(n1)N(S(C)(=O)=O)c1ccccc1C(=O)N2C [Compound 160, 2-((4-(4-(4-(4-(3-(2,4-dihydroxy-5-isopropylphenyl)-5-hydroxy-4H-1,2,4-triazol-4-yl)benzyl)piperazine-1-carbonyl)piperidin-1-yl)-2-ethoxyphenyl)(ethyl)amino)-5-methyl-11-(methylsulfonyl)-5,11-dihydro-6H-benzo[e]pyrimido[5,4-b][1,4]diazepin-6-one] | 0.1 to 1 | < 0.1
10 | CCOc1cc(N2CCC(C(=O)N3CCC(CN4CCN(Cc5ccc(-n6c(C(=O)NC(C)C(F)(F)F)nnc6-c6cc(CC)c(OC(=O)C(C)C)cc6O)cc5)CC4)CC3)CC2)ccc1Nc1ncc2c(n1)N(S(C)(=O)=O)c1ccccc1C(=O)N2C (stereo not shown) [Compound 161, 4-(4-(4-((4-((1-(1-(3-ethoxy-4-((5-methyl-11-(methylsulfonyl)-6-oxo-6,11-dihydro-5H-benzo[e]pyrimido[5,4-b][1,4]diazepin-2-yl)amino)phenyl)piperidine-4-carbonyl)piperidin-4-yl)methyl)piperazin-1-yl)methyl)phenyl)-5-((1,1,1-trifluoropropan-2-yl)carbamoyl)-4H-1,2,4-triazol-3-yl)-2-ethyl-5-hydroxyphenyl isobutyrate] | 0.1 to 1 | < 0.1
11 | CCOc1cc(N2CCC(C(=O)N3CCC(CN4CCN(Cc5ccc(-n6c(C(=O)NC(C)C(F)(F)F)nnc6-c6cc(CC)c(O)cc6OC(=O)C(C)C)cc5)CC4)CC3)CC2)ccc1Nc1ncc2c(n1)N(S(C)(=O)=O)c1ccccc1C(=O)N2C (stereo not shown) [Compound 162, 2-(4-(4-((4-((1-(1-(3-ethoxy-4-((5-methyl-11-(methylsulfonyl)-6-oxo-6,11-dihydro-5H-benzo[e]pyrimido[5,4-b][1,4]diazepin-2-yl)amino)phenyl)piperidine-4-carbonyl)piperidin-4-yl)methyl)piperazin-1-yl)methyl)phenyl)-5-((1,1,1-trifluoropropan-2-yl)carbamoyl)-4H-1,2,4-triazol-3-yl)-4-ethyl-5-hydroxyphenyl isobutyrate] | 0.1 to 1 | 0.1 to 1
12 | CCOc1cc(N2CCC(C(=O)N3CCN(Cc4ccc(-n5c(C(=O)NCCN(CC)CC)nnc5-c5cc(C(C)C)c(O)cc5O)cc4)CC3)CC2)ccc1Nc1ncc2c(n1)N(C)c1ccccc1C(=O)N2C [Compound 163, N-(2-(diethylamino)ethyl)-5-(2,4-dihydroxy-5-isopropylphenyl)-4-(4-((4-(1-(4-((5,11-dimethyl-6-oxo-6,11-dihydro-5H-benzo[e]pyrimido[5,4-b][1,4]diazepin-2-yl)amino)-3-ethoxyphenyl)piperidine-4-carbonyl)piperazin-1-yl)methyl)phenyl)-4H-1,2,4-triazole-3-carboxamide] | < 0.1 | < 0.1
13 | CCOc1cc(N2CCC(C(=O)N3CCN(Cc4ccc(-n5c(C(=O)NCCN(CC)CC)nnc5-c5cc(C(C)C)c(O)cc5O)cc4)CC3)CC2)ccc1Nc1ncc2c(n1)N(S(C)(=O)=O)c1ccccc1C(=O)N2C [Compound 164, N-(2-(diethylamino)ethyl)-5-(2,4-dihydroxy-5-isopropylphenyl)-4-(4-((4-(1-(3-ethoxy-4-((5-methyl-11-(methylsulfonyl)-6-oxo-6,11-dihydro-5H-benzo[e]pyrimido[5,4-b][1,4]diazepin-2-yl)amino)phenyl)piperidine-4-carbonyl)piperazin-1-yl)methyl)phenyl)-4H-1,2,4-triazole-3-carboxamide] | < 0.1 | < 0.1
14 | CCOc1cc(N2CCC(C(=O)NCc3ccc(CN(CC)Cc4ccc(-n5c(O)nnc5-c5cc(C(C)C)c(O)cc5O)cc4)cc3)CC2)ccc1Nc1ncc2c(n1)N(S(C)(=O)=O)c1ccccc1C(=O)N2C [Compound 166, N-(4-(((4-(3-(2,4-dihydroxy-5-isopropylphenyl)-5-hydroxy-4H-1,2,4-triazol-4-yl)benzyl)(ethyl)amino)methyl)benzyl)-1-(3-ethoxy-4-((5-methyl-11-(methylsulfonyl)-6-oxo-6,11-dihydro-5H-benzo[e]pyrimido[5,4-b][1,4]diazepin-2-yl)amino)phenyl)piperidine-4-carboxamide] | 0.1 to 1 | < 0.1
